Assay results as given in US20260232706A1, “1H-PYRAZOLE ANALOGUES AND METHODS AND USES THEREOF” (University of Manitoba, priority 2022, published 2026).

Assays:
[1] = tested on: primary cortical neuronal cells; test: Neurotoxicity/cell viability analysis in primary cortical neuronal cells (WST-8); assay type: cell-based, mouse; settings: for cell viability compared to controls: 10 μM and 1 μM, FIG. 6B
Experimental: (§1) Methods: The in vitro properties and antioxidant abilities of the synthesized B^5-EDR analogues were assessed in cell-based assays. […] The methodology employed for each of these assays is detailed below.
(i) Methodology for neurotoxicity/cell viability analysis in primary cortical neuronal cells (FIGS. 6A-B): Briefly, the cerebral cortex was isolated from fetus of mouse at about 17-about 18-day gestation. After meninges and blood vessels were removed, the tissue was digested with trypsin for about 15 min at about 37° C., then incubated with DNase for about another 15 min at about 37° C. and terminated with DMEM plus about 10% fetal bovine serum. After the supernatant was removed, the tissue was added with about 5-ml neurobasal medium (Life Technologies Inc) and triturated by gently pipetting. Neuronal cells contained in the supernatant were transferred to poly-D-lysine-coated plastic culture plates, adjusted to approximately […], and cultured in neurobasal medium with GS21 supplements (Sigma-Aldrich Canada), 1× GlutaMax (Life Technologies Inc,) and about 1% penicillin-streptomycin at about 37° C. under about 5% CO2. About 100 kcells/100 μl/well were seeded in 96 well plates for 2 Div. […] On 8th Div of neurons, about 10 μl of WST reagent was added to each well and incubated for about 2 h. After about 2 h of incubation, the absorbance of soluble coloured formazan dye was measured […] at about […] using microplate reader (Biotek instruments) with the background control as a blank. The cell viability was determined by comparing the absorbance of compounds treated cells to that of control cells. Data are representative of two independent experiments, with each measurement or dose tested six times.

[2] = tested on: neuroblastoma-spinal cord hybrid NSC-34 cells; test: Neurotoxicity/cell viability analysis in NSC-34 cells (WST-8); assay type: cell-based; settings: 1 to 100 μM
Experimental: as §1
(ii) Methodology for neurotoxicity/cell viability analysis in (NSC-34) cells (FIGS. 7A-C): Briefly, NSC-34 cells with about 20 k cells per well in 96 well plates were cultured in a complete medium consisting of high glucose Dulbecco's modified eagle medium (DMEM) (Thermo Fisher Scientific) supplemented with about 10% US-origin fetal bovine serum (Thermo Fisher Scientific), GlutaMAX-1, about 200 mM (100×) (Thermo Fisher Scientific), about 1% 100 mM Sodium pyruvate and about 1% 10,000 U/mL penicillin-streptomycin solution (Thermo Fisher Scientific) for about 20 h to reach confluency of about 70%—about 75%. All the cells were cultured in an incubator with about 5% of CO2 at about 37° C. About 20 kcells/100 μl/well were seeded in 96 well plates for about 20 h in triplicates. Cells were treated with different concentration of compounds and incubated for about 20 h. […] After about 2.5 h of incubation, the absorbance of soluble coloured formazan dye was measured […] at about […] using microplate reader (Biotek instruments) with the background control as a blank. The cell viability was determined by comparing the absorbance of compounds treated cells to that of control cells. […]

[3] = tested on: neuroblastoma-spinal cord hybrid NSC-34 cells; test: Neuroprotective effect/cell viability analysis in NSC-34 cells against H2O2 induced oxidative stress; assay type: cell-based; settings: for neuroprotection in scavenging neurotoxic effects of H2O2 compared to EDR / viability compared to EDR: 250 μM H2O2; for viability compared to EDR: 50 μM dose
Experimental: as §1
(iii) Methodology for neuroprotective effect/cell viability analysis in (NSC-34) cells (FIGS. 8A-B): Briefly, NSC-34 cells with about 20 k cells per well in 96 well plates were cultured in a complete medium consisting of high glucose Dulbecco's modified eagle medium (DMEM) (Thermo Fisher Scientific) supplemented with about 10% US-origin fetal bovine serum (Thermo Fisher Scientific), GlutaMAX-1, about 200 mM (100×) (Thermo Fisher Scientific), about 1% 100 mM Sodium pyruvate and about 1% 10,000 U/mL penicillin-streptomycin solution (Thermo Fisher Scientific) for about 20 h to reach confluency of about 70%—about 75%. All the cells were cultured in an incubator with about 5% of CO2 at about 37° C. About 20 kcells/100 μl/well were seeded in 96 well plates for about 20 h in triplicates. […] After about 1 h, the cells were treated with 250 μM of H2O2 for about 2 h. After a total period of about 3 h, about 10 μl of WST-8 reagent was added in each well and the absorbance readings were recorded after about 2.5 h at about 450 nm. All the experiments were repeated at least three times and measurements were run in triplicates.

[4] = cited from earlier work
[5] = target: P-glycoprotein (Pgp) efflux pump (Homo sapiens, UniProt P08183); settings: cited from earlier work
Chain of P-glycoprotein (Pgp) efflux pump (P08183 whole entry): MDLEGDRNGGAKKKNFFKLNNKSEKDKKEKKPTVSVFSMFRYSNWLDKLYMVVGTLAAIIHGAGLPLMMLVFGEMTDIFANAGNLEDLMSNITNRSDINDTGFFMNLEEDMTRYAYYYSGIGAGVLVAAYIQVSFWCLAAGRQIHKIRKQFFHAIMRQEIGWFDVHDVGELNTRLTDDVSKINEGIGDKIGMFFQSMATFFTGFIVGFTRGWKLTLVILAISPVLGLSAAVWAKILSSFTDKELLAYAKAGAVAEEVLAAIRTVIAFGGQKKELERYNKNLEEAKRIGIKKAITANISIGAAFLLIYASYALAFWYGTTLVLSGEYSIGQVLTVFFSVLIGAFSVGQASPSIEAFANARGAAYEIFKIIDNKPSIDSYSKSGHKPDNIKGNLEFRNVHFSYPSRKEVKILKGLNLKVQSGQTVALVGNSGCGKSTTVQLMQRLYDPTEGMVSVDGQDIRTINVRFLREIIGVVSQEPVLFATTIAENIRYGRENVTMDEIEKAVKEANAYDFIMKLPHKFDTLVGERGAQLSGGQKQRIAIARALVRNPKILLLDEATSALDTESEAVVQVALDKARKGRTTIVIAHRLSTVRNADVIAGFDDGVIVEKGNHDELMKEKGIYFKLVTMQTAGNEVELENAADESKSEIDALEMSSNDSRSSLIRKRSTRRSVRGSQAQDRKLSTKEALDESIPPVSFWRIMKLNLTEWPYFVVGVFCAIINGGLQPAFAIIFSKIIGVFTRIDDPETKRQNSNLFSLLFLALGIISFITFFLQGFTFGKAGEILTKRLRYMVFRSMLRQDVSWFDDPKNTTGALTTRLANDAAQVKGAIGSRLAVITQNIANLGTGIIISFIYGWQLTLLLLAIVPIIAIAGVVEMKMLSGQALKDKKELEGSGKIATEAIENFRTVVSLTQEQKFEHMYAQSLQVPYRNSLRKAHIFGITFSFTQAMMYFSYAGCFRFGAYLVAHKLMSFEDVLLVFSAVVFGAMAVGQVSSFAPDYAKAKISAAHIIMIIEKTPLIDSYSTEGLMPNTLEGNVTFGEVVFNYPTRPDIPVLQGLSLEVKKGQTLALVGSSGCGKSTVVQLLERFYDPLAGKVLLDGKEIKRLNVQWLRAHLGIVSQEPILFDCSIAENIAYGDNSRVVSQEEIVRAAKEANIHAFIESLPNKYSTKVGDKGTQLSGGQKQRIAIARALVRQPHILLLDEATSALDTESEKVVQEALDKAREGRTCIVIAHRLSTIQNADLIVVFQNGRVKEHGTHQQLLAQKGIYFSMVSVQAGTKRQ

CYP3A4 enzymes = CYP3A4 enzymes (Homo sapiens, UniProt P08684); settings: cited from earlier work
Chain of CYP3A4 enzymes (P08684 whole entry): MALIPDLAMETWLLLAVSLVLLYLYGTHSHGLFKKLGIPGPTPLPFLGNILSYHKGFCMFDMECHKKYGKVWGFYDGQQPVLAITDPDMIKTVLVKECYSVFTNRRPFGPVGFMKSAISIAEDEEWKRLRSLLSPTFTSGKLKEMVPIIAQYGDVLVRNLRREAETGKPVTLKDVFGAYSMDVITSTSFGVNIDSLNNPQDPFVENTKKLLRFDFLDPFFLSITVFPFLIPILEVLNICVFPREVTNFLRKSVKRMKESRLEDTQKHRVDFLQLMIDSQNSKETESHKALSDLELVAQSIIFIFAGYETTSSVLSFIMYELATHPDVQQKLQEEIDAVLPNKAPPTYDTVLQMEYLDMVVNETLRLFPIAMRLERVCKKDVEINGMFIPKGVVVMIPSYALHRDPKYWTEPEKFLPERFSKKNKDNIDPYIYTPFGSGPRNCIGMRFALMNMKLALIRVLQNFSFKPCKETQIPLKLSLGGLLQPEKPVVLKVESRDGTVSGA

ALS = settings: patients in early stages, drug for 6 months or more; cited from earlier work
[6] = tested on: neuroblastoma-spinal cord hybrid NSC-34 cells; test: Neuroprotective effect/cell viability analysis in NSC-34 cells against H2O2 induced oxidative stress; assay type: cell-based; settings: prophylactic treatment, 250 μM H2O2, FIG. 7A

## CC1=NN(c2ccccc2)C(=O)C1 [EDR, 3-methyl-1-phenyl-2-pyrazolin-5-one]
[1]; mouse, 6 days, 25 μM
  decrease in cell viability compared to control (DMSO): ~70±10%
[2]
  neurotoxicity and cytotoxicity towards NSC-34 motor neuronal cells: no neurotoxicity and cytotoxicity
[3]; 250 μM H2O2, FIGS. 8A-B
  H2O2 scavenging effects: significant H2O2 scavenging effects in a dose dependent manner
[4]
  aqueous solubility: about 1.85 mg/ml
[4]; physiological pH about 7.4
  fraction of EDR existing as an anion: about 71.5%
  fraction of EDR existing in neutral form: about 28.5%
[5]
  P-glycoprotein efflux pump substrate status: substrate
CYP3A4 enzymes
  metabolism by CYP3A4: metabolized pre-systematically
ALS
  effect on progression of ALS: delayed the progression of ALS
[6]
  protection from loss of cell viability induced by H2O2: protected NSC-34 cells from loss of cell viability

## CC1(C)OB(c2cc(C(F)(F)F)nn2-c2ccccc2)OC1(C)C [NS-1-12, 3-triflouromethyl-5-(4,4,5,5-tetramethyl-1,3,2-dioxaborolan-2-yl)-1-phenyl1H-pyrazole]
[3]; 25 μM
  neuroprotection in scavenging neurotoxic effects of H2O2 compared to EDR: better neuroprotection
[3]
  viability compared to EDR: almost equal viability

## F[B-](F)(F)c1cc(C(F)(F)F)nn1-c1ccccc1.[K+] [NS-1-19, Potassium trifluoro(3-triflouromethyl-1phenyl-1H-pyrazol-5-yl)borate]
[1]
  cell viability compared to controls: around 100%
[3]; 1 μM
  neuroprotection in scavenging neurotoxic effects of H2O2 compared to EDR: better neuroprotection
[3]; 25 μM
  neuroprotection in scavenging neurotoxic effects of H2O2 compared to EDR: better neuroprotection
[3]
  viability compared to EDR: almost equal viability

## Cc1cc([B-](F)(F)F)n(-c2ccccc2)n1.[K+] [NS-1-21, Potassium trifluoro(3-methyl-1phenyl-1H-pyrazol-5-yl)borate]
[1]
  cell viability compared to controls: around 100%
[3]; 1 μM
  neuroprotection in scavenging neurotoxic effects of H2O2 compared to EDR: better neuroprotection
[3]; 25 μM
  neuroprotection in scavenging neurotoxic effects of H2O2 compared to EDR: better neuroprotection
[3]
  viability compared to EDR: almost equal viability
